The NIST ThermoML archive (doi:10.1016/j.jct.2012.05.006)

Settings: 101.33 kPa, Liquid, Vibrating tube method

CCCCCCCC[n+]1ccn(C)c1.N#C[S-] [1-methyl-3-octyl-1H-imidazolium thiocyanate]
Settings	mass density [kg/m3]
288.15 K	1014
293.15 K	1011.1
298.15 K	1008.3
303.15 K	1005.4
308.15 K	1002.6
313.15 K	999.7
318.15 K	996.7
323.15 K	994.1
328.15 K	991.3
333.15 K	988.4
338.15 K	985.6
343.15 K	982.9
